Values quoted from earlier work in US20030035834A1, “Sustained release verapamil pharmaceutical composition free of food effect and a method for alleviating food effect in drug release” (priority 2000, published 2003).
Like-named read-outs stand apart in the source and are kept apart here.

SMILES: COc1ccc2c3c1O[C@H]1C(=O)CC[C@@]4(O)[C@@H](C2)N(C)CC[C@]314 [oxycodone]
- difference in availability, fasted vs fed (extended release tablets): no difference
- difference in availability, fasted vs fed (immediate release aqueous solution): significant difference
